Values of other authors, collected in patent publication US20150283148A1, “ARRANGEMENT OF SPECIFIC ANTIDOTES WITH ALLOPATHIC MEDICINAL PREPARATIONS IN GENERAL SECONDARY PACKAGE” (priority 2014, published 2015).

Conditions: predicted by algorithm

SMILES: NS(=O)(=O)Cc1noc2ccccc12 [Zonisamide]
- predicted latent side effect: suicidal thoughts
